Active and inactive are the calls of the source.
What was measured:
[1] = target: T1, Olfactory receptor 51E2 (Homo sapiens) (UniProt Q9H255); test: Agonist activity at PSGR/OR51E2 in human LNCaP cells assessed as induction of change in extracellular metabolites level by measuring glycine level at 1 mM incubated for 72 hrs by GC/MS analysis; format: cell-based
T1 sequence (whole entry): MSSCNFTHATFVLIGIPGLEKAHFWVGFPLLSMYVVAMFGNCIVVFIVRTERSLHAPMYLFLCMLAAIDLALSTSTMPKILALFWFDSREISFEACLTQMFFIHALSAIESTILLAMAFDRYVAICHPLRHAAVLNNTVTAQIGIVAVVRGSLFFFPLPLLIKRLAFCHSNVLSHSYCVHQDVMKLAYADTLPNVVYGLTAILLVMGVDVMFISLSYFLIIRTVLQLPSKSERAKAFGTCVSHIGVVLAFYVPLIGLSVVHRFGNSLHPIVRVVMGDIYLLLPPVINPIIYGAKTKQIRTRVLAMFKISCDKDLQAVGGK

[2] = target: T1, Olfactory receptor 51E2 (Homo sapiens); test: Agonist activity at PSGR/OR51E2 in human LNCaP cells assessed as induction of change in intracellular metabolites level by measuring dehydro-alanine level at 1 mM incubated for 72 hrs by GC/MS analysis; format: cell-based
[3] = target: T1, Olfactory receptor 51E2 (Homo sapiens); test: Agonist activity at PSGR/OR51E2 in human LNCaP cells assessed as induction of change in intracellular metabolites level by measuring threitol/erythritol level at 1 mM incubated for 72 hrs by GC/MS analysis; format: cell-based
[4] = target: T1, Olfactory receptor 51E2 (Homo sapiens); test: Agonist activity at PSGR/OR51E2 in human LNCaP cells assessed as induction of change in extracellular metabolites level by measuring aspartic acid level at 1 mM incubated for 72 hrs by GC/MS analysis; format: cell-based
[5] = target: T1, Olfactory receptor 51E2 (Homo sapiens); test: Agonist activity at PSGR/OR51E2 in human LNCaP cells assessed as induction of change in extracellular metabolites level by measuring spermidine level at 1 mM incubated for 72 hrs by GC/MS analysis; format: cell-based
[6] = target: T1, Olfactory receptor 51E2 (Homo sapiens); test: Agonist activity at PSGR/OR51E2 in human LNCaP cells assessed as induction of change in intracellular metabolites level by measuring guanine level at 1 mM incubated for 72 hrs by GC/MS analysis; format: cell-based
[7] = target: T1, Olfactory receptor 51E2 (Homo sapiens); test: Agonist activity at PSGR/OR51E2 in human LNCaP cells assessed as induction of change in intracellular metabolites level by measuring aspartic acid level at 1 mM incubated for 72 hrs by GC/MS analysis; format: cell-based
[8] = target: T1, Olfactory receptor 51E2 (Homo sapiens); test: Agonist activity at PSGR/OR51E2 in human LNCaP cells assessed as induction of change in intracellular metabolites level by measuring spermidine level at 1 mM incubated for 72 hrs by GC/MS analysis; format: cell-based
[9] = target: T1, Olfactory receptor 51E2 (Homo sapiens); test: Agonist activity at PSGR/OR51E2 in human LNCaP cells assessed as induction of change in intracellular metabolites level by measuring serine level at 1 mM incubated for 72 hrs by GC/MS analysis; format: cell-based
[10] = target: T1, Olfactory receptor 51E2 (Homo sapiens); test: Agonist activity at PSGR/OR51E2 in human LNCaP cells assessed as induction of change in intracellular metabolites level by measuring glycine level at 1 mM incubated for 72 hrs by GC/MS analysis; format: cell-based
[11] = target: T1, Olfactory receptor 51E2 (Homo sapiens); test: Agonist activity at PSGR/OR51E2 in human LNCaP cells assessed as induction of change in intracellular metabolites level by measuring lactose level at 1 mM incubated for 72 hrs by GC/MS analysis; format: cell-based
[12] = target: T1, Olfactory receptor 51E2 (Homo sapiens); test: Agonist activity at PSGR/OR51E2 in human LNCaP cells assessed as induction of change in intracellular metabolites level by measuring ornithine level at 1 mM incubated for 72 hrs by GC/MS analysis; format: cell-based
[13] = target: T1, Olfactory receptor 51E2 (Homo sapiens); test: Agonist activity at PSGR/OR51E2 in human LNCaP cells assessed as induction of change in intracellular metabolites level by measuring glutamine level at 1 mM incubated for 72 hrs by GC/MS analysis; format: cell-based
[14] = target: T1, Olfactory receptor 51E2 (Homo sapiens); test: Agonist activity at PSGR/OR51E2 in human LNCaP cells assessed as induction of change in extracellular metabolites level by measuring ornithine level at 1 mM incubated for 72 hrs by GC/MS analysis; format: cell-based
[15] = target: T1, Olfactory receptor 51E2 (Homo sapiens); test: Agonist activity at PSGR/OR51E2 in human LNCaP cells assessed as induction of change in intracellular metabolites level by measuring spermine level at 1 mM incubated for 72 hrs by GC/MS analysis; format: cell-based
[16] = target: T1, Olfactory receptor 51E2 (Homo sapiens); test: Agonist activity at PSGR/OR51E2 in human LNCaP cells assessed as induction of change in extracellular metabolites level by measuring spermine level at 1 mM incubated for 72 hrs by GC/MS analysis; format: cell-based
[17] = target: T1, Olfactory receptor 51E2 (Homo sapiens); test: Agonist activity at PSGR/OR51E2 in human LNCaP cells assessed as induction of change in intracellular metabolites level by measuring threonine level at 1 mM incubated for 72 hrs by GC/MS analysis; format: cell-based
[18] = target: T1, Olfactory receptor 51E2 (Homo sapiens); test: Agonist activity at PSGR/OR51E2 in human LNCaP cells assessed as induction of change in extracellular metabolites level by measuring serine level at 1 mM incubated for 72 hrs by GC/MS analysis; format: cell-based
[19] = target: T1, Olfactory receptor 51E2 (Homo sapiens); test: Agonist activity at PSGR/OR51E2 in human LNCaP cells assessed as induction of change in intracellular metabolites level by measuring tyramine level at 1 mM incubated for 72 hrs by GC/MS analysis; format: cell-based
[20] = target: T1, Olfactory receptor 51E2 (Homo sapiens); test: Agonist activity at PSGR/OR51E2 in human LNCaP cells assessed as induction of change in extracellular metabolites level by measuring threitol/erythritol level at 1 mM incubated for 72 hrs by GC/MS analysis; format: cell-based
[21] = target: T1, Olfactory receptor 51E2 (Homo sapiens); test: Agonist activity at PSGR/OR51E2 in human LNCaP cells assessed as induction of change in extracellular metabolites level by measuring glutamine level at 1 mM incubated for 72 hrs by GC/MS analysis; format: cell-based
[22] = target: T1, Olfactory receptor 51E2 (Homo sapiens); test: Agonist activity at PSGR/OR51E2 in human LNCaP cells assessed as induction of change in extracellular metabolites level by measuring lactose level at 1 mM incubated for 72 hrs by GC/MS analysis; format: cell-based
[23] = target: T1, Olfactory receptor 51E2 (Homo sapiens); test: Agonist activity at PSGR/OR51E2 in human LNCaP cells assessed as induction of change in extracellular metabolites level by measuring glutamic acid level at 1 mM incubated for 72 hrs by GC/MS analysis; format: cell-based
[24] = target: T1, Olfactory receptor 51E2 (Homo sapiens); test: Agonist activity at PSGR/OR51E2 in human LNCaP cells assessed as induction of change in extracellular metabolites level by measuring lactic acid level at 1 mM incubated for 72 hrs by GC/MS analysis; format: cell-based
[25] = target: T1, Olfactory receptor 51E2 (Homo sapiens); test: Agonist activity at PSGR/OR51E2 in human LNCaP cells assessed as induction of change in intracellular metabolites level by measuring lactic acid level at 1 mM incubated for 72 hrs by GC/MS analysis; format: cell-based
[26] = target: T1, Olfactory receptor 51E2 (Homo sapiens); test: Agonist activity at PSGR/OR51E2 in human LNCaP cells assessed as induction of change in extracellular metabolites level by measuring threonine level at 1 mM incubated for 72 hrs by GC/MS analysis; format: cell-based
[27] = target: T1, Olfactory receptor 51E2 (Homo sapiens); test: Agonist activity at PSGR/OR51E2 in human LNCaP cells assessed as induction of change in extracellular metabolites level by measuring tyramine level at 1 mM incubated for 72 hrs by GC/MS analysis; format: cell-based
[28] = target: T1, Olfactory receptor 51E2 (Homo sapiens); test: Agonist activity at PSGR/OR51E2 in human LNCaP cells assessed as induction of change in intracellular metabolites level by measuring glutamic acid level at 1 mM incubated for 72 hrs by GC/MS analysis; format: cell-based
[29] = target: T1, Olfactory receptor 51E2 (Homo sapiens); test: Agonist activity at PSGR/OR51E2 in human LNCaP cells assessed as induction of change in extracellular metabolites level by measuring guanine level at 1 mM incubated for 72 hrs by GC/MS analysis; format: cell-based
[30] = target: T1, Olfactory receptor 51E2 (Homo sapiens); test: Agonist activity at PSGR/OR51E2 in human LNCaP cells assessed as induction of change in extracellular metabolites level by measuring dehydro-alanine level at 1 mM incubated for 72 hrs by GC/MS analysis; format: cell-based
[31] = system: LNCaP; test: Growth inhibition of human LNCAP cells incubated for 7 days by CellTiter-Glo assay; format: functional, cell-based

CCC(=O)O
active: Activity [1] | Activity [2] | Activity [3] | Activity [4] | Activity [5] | Activity [6] | Activity [7] | Activity [8] | Activity [9] | Activity [10] | Activity [11] | Activity [12] | Activity [13] | Activity [14] | Activity [15] | Activity [16] | Activity [17] | Activity [18] | Activity [19] | Activity [20] | Activity [21] | Activity [22] | Activity [23] | Activity [24] | Activity [25] | Activity [26] | Activity [27] | Activity [28] | Activity [29] | Activity [30]

CC1=C(/C=C/C(C)=C/C=C/C(C)=C\C(=O)O)C(C)(C)CCC1
active: growth inhibition (GI) [31]

From ChEMBL document CHEMBL4482311, “Modulators of Prostate-Specific G-Protein Receptor (PSGR/OR51E2) and Methods of Using Same” (2018)
